US6103709A (priority 1998, dated 2000)
Entries after “also recorded” stand apart in the source; their conditions may differ.

Columns and labels:
[1] = biological target: T1, nuclear receptor for 1α,25(OH)2 D3 [VDRnuc] (Gallus gallus, UniProt O42392); experiment: Relative Competitive Index (steroid competition) assay, nuclear receptor VDRnuc; assay type: binding, chick; design: key to Nuclear 1α,25-D Receptor (RCI): % relative to 1α,25(OH)2D3 binding (RCI = 100%); settings: for Binding to VDRnuc relative to 1α,25(OH)2 D3 (RCI): 1α,25(OH)2 D3 = 100%, FIG. 8: chick intestine mucosa; for Nuclear 1α,25-D Receptor (RCI): RCI of 1α,25(OH)2 D3 = 100
T1 construct: VDRnuc receptor preparation from chick intestine mucosa; from tissue; host or cells: chick intestinal mucosa
T1 sequence (O42392 1-451): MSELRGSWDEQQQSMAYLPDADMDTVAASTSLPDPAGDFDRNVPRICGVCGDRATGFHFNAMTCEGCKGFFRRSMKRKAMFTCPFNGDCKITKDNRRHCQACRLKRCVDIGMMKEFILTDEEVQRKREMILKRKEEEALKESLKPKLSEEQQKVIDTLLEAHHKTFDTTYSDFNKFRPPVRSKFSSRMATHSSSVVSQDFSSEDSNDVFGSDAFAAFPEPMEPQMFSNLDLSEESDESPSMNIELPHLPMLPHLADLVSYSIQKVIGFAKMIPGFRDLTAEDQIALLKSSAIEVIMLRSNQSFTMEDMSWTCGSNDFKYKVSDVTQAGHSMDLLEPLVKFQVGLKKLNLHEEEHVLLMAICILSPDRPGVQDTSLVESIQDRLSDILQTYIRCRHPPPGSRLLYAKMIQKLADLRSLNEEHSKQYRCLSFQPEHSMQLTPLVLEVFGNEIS
Procedure: The ability of analogs to mediate genomic responses are directly determined by the ability of the analog in question to bind to the nuclear receptor for 1α,25(OH)2 D3 [VDRnuc ]. This ability is detected by the assay measuring Relative Competitive Index (RCI).
The assay is based upon the principles of a steroid competition assay. A fixed amount of [^3 H]1α,25(OH)2 D3 is mixed with increasing amounts of competitive analogs or the natural hormone, 1α,25(OH)2 D3, and incubated with a VDRnuc receptor preparation from chick intestine mucosa.
Ligand Receptor Competition Assay
This example describes a ligand receptor competitive assay used for determination of an analog's relative ability to bind to VDRnuc expressed as relative competitive index (RCI).
The relative affinity of nonradioactive 1α,25(OH)2 D3 and each analog to compete with [^3 H]1α,25(OH)2 D3 for binding to the VDRnuc of NB4 cells was carried out in vitro. The NB4 cells were collected from a fast growing stage and the cellular VDRnuc of 1α,25(OH)2 D3 were extracted from KTED buffer containing 10 mM Tris-HCl, pH 7.4, 300 mM KCl, 1 mM EDTA and 5 mM DTT. After sonication, the cell extract was further centrifuged at 500× g for 10 min. The supernatant was collected for use in a ligand-receptor binding assay.
In this assay, increasing concentrations (10^-10 to 10^-6 M) of nonradioactive 1α,25(OH)2 D3 or the tested analogs were incubated with NB4 cell extracts in the presence of a fixed saturating amount of 1 pmole of [^3 H]1α,25(OH)2 D3. The reciprocal of the percentage of maximal binding of [^3 H]1α,25(OH)2 D3 was then calculated and plotted as a function of the relative analog concentration versus [^3 H]1α,25(OH)2 D3. […] The competitive index value for each analog is then normalized to the competitive index value of the […], thereby generating the value of Relative Competitive Index (RCI) where the RCI for 1α,25(OH)2 D3 is defined as 100%.
The full description of the assay is found in Methods in Enzymology: Vitamins and Co-Enzymes, Vol. 67, 494-500 , Academic Press, NY(1980); Biochem. Biophys. Res. Commun., 91: 827-834 (1979); and Endocrinology, 139(2): 457-465 (1998).

[2] = test system: intestinal Ca2+ transport in perfused chick duodena (transcaltachia); experiment: Transcaltachia assay (rapid stimulation of 45Ca2+ transport in perfused duodena); settings: for Rapid Trans-Caltachia, relative to 1α,25(OH)2 D3: 1α,25(OH)2 D3 = 100; for stimulation of transcaltachia (in words, FIG. 11): perfusion with 300 pM or 650 pM analog, reference 650 pM 1α,25(OH)2 D3, within first four minutes
Procedure: Duodenal loops from normal, vitamin D-replete chicks were lumenally perfused with ^45 Ca^2+ (5 uCi/ml of buffer). To establish basal transport rates, celiac artery of controls were perfused with control medium for the first 20 min. The duodena were then either re-exposed to control medium containing the vehicle ethanol (0.005%, final concentration) through the celiac artery, or vascularly perfused with 300 pM or 650 pM agonist analogs JM or JN or with 650 pM of a control reference compound 1α,25(OH)2 D3. The venous effluent was collected at 2 min intervals for liquid scintillation spectrophotometry of the ^45 Ca^2+. […] Values represent mean ±SEM for n=4 in each group.
The data shown in FIG. 13 are the mean ±SEM from 4-5 duodena. […] Open circles represent the negative control receiving no treatment with 1α,25(OH)2 D3 or analog. […] Data represent the ratio of treated to basal values ±SEM extracted from a time-course plot (as in panel A) at 32 minutes.
This example describes the assay used for testing rapid response transcaltachia described in J. Biol. Chem, 268: 13811-13819 (1993).
White Leghorn cockerels (Hyline International, Lakeview, Calif.) were obtained on the day of hatch and maintained on a vitamin D-supplemented diet (1.0% calcium and 1.0% phosphorus; O. H. Kruse Grain and Milling, Ontario, Calif.) for 5-6 weeks to prepare normal vitamin D3 -replete chicks for use in the transcaltachia studies.
Measurements of ^45 Ca^2+ transport were carried out in perfused chick duodena. Normal vitamin D-replete chicks weighing approximately 500 g were anesthetized with 0.3 ml per 100 g Chloropent (Fort Dodge, Iowa), and the duodenal loop was surgically exposed. The celiac vein and blood vessels branching off from the celiac artery were ligated before cannulation of the celiac artery itself, and vascular perfusion was immediately initiated. Both the celiac artery and vein of the duodena were perfused with modified Grey's balanced salt solution (GBSS) +0.9 mM Ca which was oxygenated with 95% O2 and 5% CO2. A basal transport rate was established by perfusion with control medium for 20 minutes after the intestinal lumen was filled with ^45 Ca^2+. The tissue was then exposed to 1α,25(OH)2 D3 or analogs or reexposed to control medium for an additional 40 minutes. The vascular perfusate was collected at 2 min intervals during the last 10 min of the basal and during the entire treatment period. Duplicate 100 μl aliquots were taken for determination of the ^45 Ca^2+ levels by liquid scintillation spectrometry.

Binding to VDRnuc relative to 1α,25(OH)2 D3 (RCI) [1]	Nuclear 1α,25-D Receptor (RCI) [1]	SMILES	further results
29%	29	C=C1/C(=C\C=C2/CCC[C@]3(C)[C@@H]([C@H](C)Cc4cccc(O)c4)CC[C@@H]23)C[C@@H](O)C[C@@H]1O [DE]	
5%	5	C=C1/C(=C\C=C2/CCC[C@]3(C)[C@@H]([C@H](C)Cc4ccc(O)cc4)CC[C@@H]23)C[C@@H](O)C[C@@H]1O [DF]	
62%	62	C=C1/C(=C\C=C2/CCC[C@]3(C)[C@@H]([C@H](C)Cc4cccc(C(C)(C)O)c4)CC[C@@H]23)C[C@@H](O)C[C@@H]1O [EV]	
		C=C1/C(=C\C=C2/CCC[C@]3(C)[C@@H]([C@H](C)CCCC(C)(C)O)CC[C@@H]23)C[C@@H](O)C[C@H]1O [HL]	transcaltachia caused by 1α,25(OH)2 D3 in presence of HL ([2]; HL 12 pM in combination with 1α,25(OH)2 D3 300 pM): particularly observable; inhibition of 1α,25(OH)2 D3-stimulated transcaltachia ([2]; HL 60 pM in advance of 300 pM 1α,25(OH)2 D3): clear inhibition of transcaltachia; inhibition of 1α,25(OH)2 D3-stimulated transcaltachia ([2]; HL 400 pM, 1α,25(OH)2 D3 300 pM): clearly inhibited; inhibition of 1α,25(OH)2 D3-stimulated transcaltachia ([2]; HL administered before 1α,25(OH)2 D3 / FIG. 13 overall): almost completely inhibited; also recorded: potent ability of 1β,25(OH)2 D3 (HL) to block or antagonize
	21	C=C1/C(=C\C=C2/CCC[C@]3(C)[C@@H]([C@H](C)C=C=CC(C)(C)O)CC[C@@H]23)C[C@@H](O)C[C@@H]1O [HQ]	
52%	52	C=C1/C(=C\C=C2/CCC[C@]3(C)[C@@H]([C@H](C)C=C=CC(C)(C)O)CC[C@@H]23)C[C@@H](O)C[C@@H]1O [HR]	
	0.002	C=C1CC[C@H](O)C/C1=C/C=C1\CCC[C@]2(C)[C@@H]([C@H](C)Cc3ccc(O)cc3)CC[C@@H]12 [JX]	
	0.001	C=C1CC[C@H](O)C/C1=C/C=C1\CCC[C@]2(C)[C@@H]([C@H](C)Cc3cccc(O)c3)CC[C@@H]12 [JY]	
98%	98	C=C1/C(=C\C=C2/CCC[C@]3(C)[C@@H]([C@H](C)CCCC(C)(C)O)C[C@@H]4C[C@@]243)C[C@@H](O)C[C@@H]1O [LO]	VDRnuc binding / nuclear response (in words) ([1]; compared with 1α,25(OH)2 D3): as active in generating nuclear responses as is the 1α,25(OH)2 D3

SMILES	Binding to VDRnuc relative to 1α,25(OH)2 D3 (RCI) [1]	Nuclear 1α,25-D Receptor (RCI) [1]	further results
CC1=C(/C=C\C2=CCC[C@@]3(C)[C@@H]2CC[C@@H]3[C@H](C)CCCC(C)(C)O)C[C@@H](O)C[C@@H]1O [GF]		2	
C[C@H](CCCC(C)(C)O)[C@H]1CC[C@H]2C3=CC=C4C[C@@H](O)C[C@H](O)[C@]4(C)[C@H]3CC[C@]12C [JM]		0.1	Rapid Trans-Caltachia, relative to 1α,25(OH)2 D3 [2]: 60%; stimulation of transcaltachia (in words, FIG. 11) [2]: comparable or better than the reference compound
C[C@H](CCCC(C)(C)O)[C@H]1CC[C@H]2C3=CC=C4C[C@@H](O)C[C@H](O)[C@@]4(C)[C@@H]3CC[C@]12C [JN]		1.8	Rapid Trans-Caltachia, relative to 1α,25(OH)2 D3 [2]: 105%; stimulation of transcaltachia (in words, FIG. 11) [2]: comparable or better than the reference compound
C[C@H](CCCC(C)(C)O)[C@H]1CC[C@H]2C3=CC=C4C[C@@H](O)C[C@H](O)[C@@]4(C)[C@H]3CC[C@]12C [JO]		0.2	Rapid Trans-Caltachia, relative to 1α,25(OH)2 D3 [2]: 50%
C[C@H](CCCC(C)(C)O)[C@H]1CC[C@H]2C3=CC=C4C[C@@H](O)C[C@H](O)[C@]4(C)[C@@H]3CC[C@]12C [JP]		0.3	Rapid Trans-Caltachia, relative to 1α,25(OH)2 D3 [2]: 60%
CC1=C(C=C=C2CCC[C@]3(C)[C@@H]([C@H](C)CCCC(C)(C)O)CC[C@@H]23)C[C@@H](O)C[C@@H]1O [JV]		1.6	
CC1=C(C=C=C2CCC[C@]3(C)[C@@H]([C@H](C)CCCC(C)(C)O)CC[C@@H]23)C[C@@H](O)C[C@@H]1O [JW]		2.6	
